≈ marks a conversion by molar mass, not a printed value.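 Cultured in 96-well plates, cells were exposed to test compound for 48 hours across five concentrations. At the GI50, growth is halved. TGI: total growth inhibition.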
Columns and labels:
Assay in all cases: NCI tumour cell line growth inhibition, 48 h
[1] = system: HCC-2998 colon
[2] = system: BT-549 breast
[3] = system: A498 renal
[4] = system: MDA-MB-435
[5] = system: RPMI-8226 leukemia
[6] = system: OVCAR-4 ovarian
[7] = system: SK-OV-3 ovarian
[8] = system: OVCAR-3 ovarian
[9] = system: HT29 colon
[10] = system: SK-MEL-28 melanoma
[11] = system: NCI-H460 lung
[12] = system: OVCAR-8 ovarian
[13] = system: NCI-H522 lung
[14] = system: MDA-MB-231 breast
[15] = system: HOP-92 NSCLC
[16] = system: SW-620 colon
[17] = system: HCT-15 colon
[18] = system: NCI-H226 lung
[19] = system: PC-3 prostate
[20] = system: RXF 393 renal
[21] = system: T-47D breast
[22] = system: SNB-75 CNS
[23] = system: HL-60(TB) leukemia
[24] = system: OVCAR-5 ovarian
[25] = system: MALME-3M melanoma
[26] = system: ACHN renal
[27] = system: COLO 205 colon
[28] = system: SNB-19 CNS
[29] = system: A549 NSCLC
[30] = system: NCI/ADR-RES ovarian
[31] = system: KM12 colon
[32] = system: NCI-H23 lung
[33] = system: HOP-62 NSCLC
[34] = system: UACC-62 melanoma
[35] = system: MCF7 breast
[36] = system: UACC-257 melanoma
[37] = system: SF-268 CNS
[38] = system: U251 CNS
[39] = system: SK-MEL-5 melanoma
[40] = system: LOX IMVI melanoma
[41] = system: SK-MEL-2 melanoma
[42] = system: K-562 leukemia
[43] = system: SN12C renal
[44] = system: DU-145 prostate
[45] = system: SF-539 CNS
[46] = system: EKVX NSCLC
[47] = system: CCRF-CEM leukemia
[48] = system: MOLT-4 leukemia
[49] = system: IGROV1 ovarian
[50] = system: HS 578T breast
[51] = system: TK-10 renal

Q: Which results are given for `CC(=O)OC1C=CC(OC(C)=O)C2C1[C@H]1C3C=CC=CC3[C@@H]2S1=O` (some centres undefined)?
A: GI50 [1]: 94.2 µg/mL; GI50 [2]: 59.8 µg/mL (≈ 172 µM); GI50 [3]: 53.7 µg/mL; GI50 [4]: 40.2 µg/mL

Q: Which results are given for `O=C1c2c(c3c4ccccc4[nH]c3c3ccc4ccccc4c23)C(=O)N1CCN1CCCCC1`?
A: GI50 [5]: 1.78 µM; TGI [5]: 4.7 µM; GI50 [6]: 2.03 µM; TGI [6]: 5.74 µM; GI50 [1]: 1.95 µM; TGI [1]: 15.3 µM; GI50 [7]: 0.801 µM; TGI [7]: > 100 µM; GI50 [8]: 1.99 µM; TGI [8]: 5.04 µM; GI50 [9]: 1.72 µM; TGI [9]: 10.6 µM; GI50 [10]: 1.65 µM; TGI [10]: 3.16 µM; GI50 [11]: 0.25 µM; TGI [11]: 1.45 µM; GI50 [12]: 1.27 µM; TGI [12]: 4.48 µM; GI50 [13]: 1.5 µM; TGI [13]: 5.36 µM; GI50 [14]: 1.95 µM; TGI [14]: 5.08 µM; GI50 [15]: 2.67 µM; TGI [15]: 38.8 µM; GI50 [16]: 0.663 µM; TGI [16]: 4.75 µM; GI50 [17]: 0.963 µM; TGI [17]: 3.38 µM; GI50 [18]: 1.23 µM; TGI [18]: 3.39 µM; GI50 [19]: 1.68 µM; TGI [19]: 24.7 µM; GI50 [20]: 1.47 µM; TGI [20]: 3.01 µM; GI50 [21]: 1.61 µM; TGI [21]: 7.87 µM; GI50 [22]: 2.2 µM; TGI [22]: 22.6 µM; GI50 [23]: 1.07 µM; TGI [23]: 3.31 µM; GI50 [24]: 1.52 µM; TGI [24]: 3.49 µM; GI50 [25]: 1.33 µM; TGI [25]: 2.92 µM; GI50 [26]: 0.335 µM; TGI [26]: 2.26 µM; GI50 [27]: 1.38 µM; TGI [27]: 8.28 µM; GI50 [28]: 0.94 µM; TGI [28]: 46.4 µM; GI50 [29]: 3.1 µM; TGI [29]: > 100 µM; GI50 [30]: 0.797 µM; TGI [30]: 3.31 µM; GI50 [31]: 3.05 µM; TGI [31]: 25.5 µM; GI50 [32]: 0.741 µM; TGI [32]: 9.79 µM; GI50 [3]: 1.18 µM; TGI [3]: 9.85 µM; GI50 [33]: 1.06 µM; TGI [33]: 3.43 µM; GI50 [34]: 1.21 µM; TGI [34]: 2.59 µM; GI50 [35]: 0.0388 µM; TGI [35]: 2.34 µM; GI50 [36]: 1.87 µM; TGI [36]: 4.23 µM; GI50 [37]: 1.15 µM; TGI [37]: > 100 µM; GI50 [38]: 1.05 µM; TGI [38]: 7.51 µM; GI50 [39]: 1.51 µM; TGI [39]: 3.1 µM; GI50 [40]: 0.894 µM; TGI [40]: 2.33 µM; GI50 [41]: 2.25 µM; TGI [41]: 5.36 µM; GI50 [42]: 1.33 µM; TGI [42]: 6.34 µM; GI50 [43]: 0.447 µM; TGI [43]: 1.73 µM; GI50 [44]: 1.05 µM; TGI [44]: 14.5 µM; GI50 [45]: 1.41 µM; TGI [45]: 3.21 µM; GI50 [46]: 13.4 µM; TGI [46]: > 100 µM; GI50 [47]: 0.272 µM; TGI [47]: 11.3 µM; GI50 [4]: 1.72 µM; TGI [4]: 3.26 µM; GI50 [48]: 0.354 µM; TGI [48]: 5.35 µM; GI50 [49]: 1.25 µM; TGI [49]: 4.29 µM; GI50 [50]: 2.04 µM; TGI [50]: 5.71 µM; GI50 [51]: 3.38 µM; TGI [51]: > 100 µM

From PubChem BioAssay (NCI)
